Experimental findings from publication PMC3062254 (Molecular microbiology, 2011) are described below.

Common to all, as to experiment: NADPH/GSH reductase-coupled HED assay, A340
What all share (type): biochemical
Details in all cases: read-out: Km (HED); 0.5 mM GSH, 0.2 mM NADPH, yeast GSH reductase, 50 mM sodium phosphate pH 7.5, 50 mM NaCl, 25 °C

In assay [1] the target is cGrx2 (Clostridium Cys-containing Grx2) (Alkaliphilus oremlandii, UniProt A8MJH2, C15S).
The target in assay [2] is cGrx2 (Clostridium Cys-containing Grx2) (Alkaliphilus oremlandii, UniProt A8MJH2).
The target of assay [3] is cGrx1 (Clostridium selenoprotein Grx1) (Alkaliphilus oremlandii, UniProt A8MIN3, U13C).
Assay [4] deals with eGrx1 (E. coli Grx1) (Escherichia coli, UniProt P68688).
Sequence of eGrx1 (E. coli Grx1) (P68688 whole entry): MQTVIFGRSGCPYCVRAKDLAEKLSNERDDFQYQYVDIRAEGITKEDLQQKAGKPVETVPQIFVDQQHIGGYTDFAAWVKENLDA

What is called Km is the concentration of substrate that gives half-maximal velocity. For the compound `OCCSSCCO` [hydroxyethyl disulfide], the Km stood at 18.1 ± 4.5 mM in assay [1], 17.6 ± 5.6 mM in assay [2], 1.5 ± 0.8 mM in assay [3] and 11.2 ± 2.2 mM in assay [4].
